The target of data set [1] is T1, phosphoenolpyruvate carboxylase yielded by Acetobacter hansenii IFO 14820 (ATCC 35959) (Novacetimonas hansenii, UniProt A0ABQ0SBC7).
T1 sequence (A0ABQ0SBC7 1-933): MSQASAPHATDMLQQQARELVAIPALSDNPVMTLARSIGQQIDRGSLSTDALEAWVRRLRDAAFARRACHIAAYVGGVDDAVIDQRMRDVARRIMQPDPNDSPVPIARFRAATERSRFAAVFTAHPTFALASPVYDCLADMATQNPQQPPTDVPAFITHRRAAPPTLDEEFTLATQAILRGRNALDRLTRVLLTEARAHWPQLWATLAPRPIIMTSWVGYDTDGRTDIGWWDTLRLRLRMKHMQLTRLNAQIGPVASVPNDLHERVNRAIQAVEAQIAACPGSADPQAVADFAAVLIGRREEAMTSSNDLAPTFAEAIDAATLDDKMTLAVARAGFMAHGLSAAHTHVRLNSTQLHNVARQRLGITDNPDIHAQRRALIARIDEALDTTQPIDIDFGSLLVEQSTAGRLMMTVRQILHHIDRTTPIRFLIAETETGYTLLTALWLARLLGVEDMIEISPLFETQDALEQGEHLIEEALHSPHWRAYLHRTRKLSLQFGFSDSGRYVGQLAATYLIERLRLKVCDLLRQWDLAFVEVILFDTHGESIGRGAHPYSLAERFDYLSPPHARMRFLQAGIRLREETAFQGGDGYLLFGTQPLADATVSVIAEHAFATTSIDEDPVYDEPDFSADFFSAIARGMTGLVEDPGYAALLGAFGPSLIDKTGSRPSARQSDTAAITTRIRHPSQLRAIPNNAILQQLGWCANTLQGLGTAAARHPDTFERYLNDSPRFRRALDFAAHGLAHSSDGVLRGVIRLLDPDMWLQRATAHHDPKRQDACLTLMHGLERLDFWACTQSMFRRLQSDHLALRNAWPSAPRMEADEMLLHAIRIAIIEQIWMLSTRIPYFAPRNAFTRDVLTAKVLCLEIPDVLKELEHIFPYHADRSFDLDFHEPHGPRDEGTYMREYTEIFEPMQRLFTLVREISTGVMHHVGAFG

Substrate in data set [2]: C=C(OP(=O)(O)O)C(=O)O
Kind of data set: purified protein, by the assay type. The conditions noted are these: pH 7.0; 30.0 °C.

These results are taken from US5624812A, “Method for measuring carbon dioxide and reagent therefor” (Toyo Boseki Kabushiki Kaisha, priority 1993, dated 1997).

As to `CC(=O)SCCNC(=O)CCNC(=O)[C@H](O)C(C)(C)COP(=O)(O)OP(=O)(O)OC[C@H]1O[C@@H](n2cnc3c(N)ncnc32)[C@H](O)[C@@H]1OP(=O)(O)O` [acetyl CoA], in data set [1], the “Activation by acetyl CoA” value is reported as “Not activated”. For `Nc1ncnc2c1ncn2[C@@H]1O[C@H](COP(=O)(O)OP(=O)(O)O)[C@@H](O)[C@H]1O` [ADP], in data set [1], the “Inhibition by ADP” value was “Not inhibited”.

B1: phosphoenolpyruvate carboxylase yielded by Acetobacter hansenii IFO 14820 (ATCC 35959) (Novacetimonas hansenii) (protein)
chain: T1 sequence (A0ABQ0SBC7 1-933)
Turning to B1, the Km in data set [2] worked out at 210 µM.

By Km is commonly meant the concentration of substrate that gives half-maximal velocity.
